# Test results reported in US4443436A, “C-20-Modified macrolide derivatives of the macrolide antibiotics tylosin, desmycosin, macrocin, and lactenocin” (Eli Lilly and Company, priority 1982, dated 1984).
# Values joined by “and” are separate entries in the source; they are usually repeats but may differ in a detail not shown here. Equal entries are not always repeated. Where two headings read alike, the source gives them in different places.
# Experiments:
# [1] = system: Pasteurella multocida 60A; experiment: MIC, broth-dilution microtiter test, Pasteurella multocida 60A; format: cell-based
# Source text: (§1) The MIC's in Table X were obtained using conventional broth-dilution microtiter tests.
# Staphylococcus aureus = experiment: MIC, broth-dilution microtiter test, Staphylococcus aureus; format: cell-based
# Source text: as §1
# Mycoplasma hyopneumoniae = experiment: MIC, broth-dilution microtiter test, Mycoplasma hyopneumoniae; format: cell-based; conditions: Mesomycoplasma hyopneumoniae; Mycoplasma hyopneumoniae; broth-dilution microtiter; read-out: MIC
# Source text: as §1
# Mycoplasma hyorhinis = experiment: MIC, broth-dilution microtiter test, Mycoplasma hyorhinis; format: cell-based; conditions: Mycoplasma
# Source text: as §1
# [2] = system: Staphylococcus aureus S13E; experiment: MIC, standard agar-dilution assay, Staphylococcus aureus S13E; format: cell-based; conditions: Staphylococcus aureus, S13E
# [3] = system: Haemophilus influenzae Holt; experiment: MIC, standard agar-dilution assay, Haemophilus influenzae Holt; format: cell-based
# [4] = system: Streptococcus Group D X66; experiment: MIC, standard agar-dilution assay, Streptococcus Group D X66; format: cell-based
# [5] = system: Streptococcus pneumoniae Park I; experiment: microbe, parasite or virus in culture; format: cell-based
# [6] = system: Staphylococcus aureus X1.1; experiment: MIC, standard agar-dilution assay, Staphylococcus aureus X1.1; format: cell-based
# Pasteurella multocida [7] = experiment: Oral (gavage) treatment of Pasteurella multocida-infected chicks; format: in vivo, one-day-old chicks
# Procedure: (§2) Many of the C-20 modified derivatives of this invention have also shown in vivo antibacterial activity against infections induced by gram-negative bacteria. Tables XII and XIII summarize the results of tests in which illustrative compounds were evaluated against Pasteurella infection in one-day-old chicks. The compounds were administered parenterally or orally after challenge of the chicks with Pasteurella multocida (0.1 ml of a 10^-4 dilution of a twenty-hour tryptose broth culture of an avian P. multocida given subcutaneously). In these tests, unless indicated otherwise, all non-medicated infected chicks died within 24 hours of Pasteurella challenge. In the tests summarized in Table XII the compounds were administered by subcutaneous injection at a dosage of 30 mg/kg, 1 and 4 hours post-challenge of the chicks with P. multocida. In the test summarized in Table XIII the compounds were administered by gavage at 1 and 5 hours post-challenge of the chicks with P. multocida.
# [8] = system: Staphylococcus aureus X400; experiment: MIC, standard agar-dilution assay, Staphylococcus aureus X400; format: cell-based
# Mycoplasma synoviae = experiment: MIC, broth-dilution microtiter test, Mycoplasma synoviae; format: cell-based; conditions: Mycoplasmopsis synoviae
# Source text: as §1
# [9] = system: Staphylococcus epidermidis EPI2; experiment: MIC, standard agar-dilution assay, Staphylococcus epidermidis EPI2; format: cell-based
# Pasteurella multocida [10] = experiment: Subcutaneous treatment of Pasteurella multocida-infected chicks; format: in vivo, one-day-old chicks
# Procedure: as §2
# [11] = system: Haemophilus influenzae R252; experiment: MIC, standard agar-dilution assay, Haemophilus influenzae R252; format: cell-based
# [12] = system: Staphylococcus epidermidis EPI1; experiment: MIC, standard agar-dilution assay, Staphylococcus epidermidis EPI1; format: cell-based
# [13] = system: Pasteurella multocida 17E; experiment: MIC, broth-dilution microtiter test, Pasteurella multocida 17E; format: cell-based
# Source text: as §1
# Streptococcus bovis 80 = experiment: MIC, broth-dilution microtiter test, Streptococcus bovis 80; format: cell-based; conditions: Streptococcus equinus
# Source text: as §1
# [14] = system: Staphylococcus aureus V41; experiment: MIC, standard agar-dilution assay, Staphylococcus aureus V41; format: cell-based
# [15] = system: Streptococcus pyogenes C203; experiment: MIC, standard agar-dilution assay, Streptococcus pyogenes C203; format: cell-based
# [16] = system: Streptococcus pyogenes C203; experiment: In vivo protection of mice experimentally infected with S. pyogenes C203; conditions: Streptococcus pyogenes, mice, doses given 1 and 4 hours post-infection
# Procedure: The C-20 modified derivatives of this invention have shown in vivo antimicrobial activity against experimentally-induced infections in laboratory animals. When two doses of test compound were administered to mice experimentally infected with S. pyogenes C203, the activity observed was measured as an ED50 value [effective dose in mg/kg to protect 50% of the test animals: see Warren Wick, et al., J. Bacteriol. 81, 233-235 (1961)].
# [17] = system: Pasteurella hemolytica 22C; experiment: MIC, broth-dilution microtiter test, Pasteurella hemolytica 22C; format: cell-based
# Source text: as §1
# Streptococcus Group 9960 = experiment: MIC, standard agar-dilution assay, Streptococcus Group 9960; format: cell-based; conditions: GROUP9960
# Mycoplasma gallisepticum = experiment: MIC, broth-dilution microtiter test, Mycoplasma gallisepticum; format: cell-based; conditions: Mycoplasmoides gallisepticum
# Source text: as §1
# [18] = broth-dilution microtiter, read-out: MIC
# [19] = 2.0 g/gal equivalent, 11/20 infected nonmedicated chicks died in this test
# [20] = Mycoplasma synoviae, broth-dilution microtiter, read-out: MIC
# [21] = Staphylococcus epidermidis EPI2, agar dilution, read-out: MIC
# [22] = Staphylococcus epidermidis, EPI1
# [23] = C203, sc, subcutaneous, read-out: ED50, Subcutaneous
# [24] = C203, oral, read-out: ED50, Oral
# [25] = Mycoplasma gallisepticum, broth-dilution microtiter, read-out: MIC
# [26] = Pasteurella multocida 60A, avian isolate, broth-dilution microtiter, read-out: MIC
# [27] = Streptococcus Group D X66, agar dilution, read-out: MIC
# [28] = Staphylococcus aureus X1.1, agar dilution, read-out: MIC
# [29] = Staphylococcus aureus X400, methicillin-resistant strain, agar dilution, read-out: MIC
# [30] = 30 mg/kg × 2, 1 and 4 hours post-challenge
# [31] = Haemophilus influenzae R252, ampicillin-resistant strain, read-out: MIC
# [32] = Pasteurella multocida 17E, bovine isolate, broth-dilution microtiter, read-out: MIC
# [33] = Staphylococcus aureus V41, penicillin-resistant strain, agar dilution, read-out: MIC
# [34] = Streptococcus pyogenes C203, agar dilution, read-out: MIC
# [35] = Pasteurella hemolytica 22C, broth-dilution microtiter, read-out: MIC
# [36] = Staphylococcus epidermidis EPI1, agar dilution, read-out: MIC
SMILES,MIC (Staphylococcus aureus; [18]),MIC (Mycoplasma hyopneumoniae),MIC (Mycoplasma hyorhinis),MIC [2],MIC ([3]; Haemophilus influenzae),MIC ([5]; Streptococcus pneumoniae),"MIC ([6]; Staphylococcus aureus, X1.1)",Number of Deaths/Number tested (Pasteurella multocida [7]; [19]),MIC (Mycoplasma synoviae; [20]),MIC (Streptococcus bovis 80; 80),"ED50 [16, 23]","ED50 [16, 24]",MIC (Mycoplasma gallisepticum; [25]),"MIC [1, 26]","MIC [4, 27]","MIC [8, 29]",Number of Deaths/Number Treated (Pasteurella multocida [10]; [30]),"MIC [11, 31]","MIC [13, 32]","MIC [17, 35]",further results
CCC1OC(=O)CC(O)C(C)C(OC2OC(C)C(O)C(N(C)C)C2O)C(CC2SCCN2Cc2ccccc2)CC(C)C(=O)C=CC(C)=CC1COC1OC(C)C(O)C(OC)C1OC (stereo not shown) [Compound 77],0.39 µg/mL,0.19 µg/mL,6.25 µg/mL,0.25 µg/mL,16 µg/mL,1 µg/mL,0.25 µg/mL,4/10,0.19 µg/mL,3.12 µg/mL,> 10 mg/kg,19 mg/kg,0.09 µg/mL,–,–,–,–,–,–,–,"MIC ([1]; Pasteurella multocida, 60A): 12.5 µg/mL; MIC [4]: 4 µg/mL; MIC ([8]; Staphylococcus aureus, X400): 0.25 µg/mL; MIC [9, 21]: 0.12 µg/mL; Number of Deaths/Number Treated (Pasteurella multocida [10]; 30 mg/kg × 2, 8/10 and 9/10 of two groups of infected nonmedicated chicks died): 8/10; MIC ([11]; Haemophilus influenzae, R252): 16 µg/mL; MIC [12, 22]: 0.25 µg/mL; MIC ([13]; Pasteurella multocida, 17E): 12.5 µg/mL; MIC ([14]; Staphylococcus aureus, V41): 0.25 µg/mL; MIC ([15]; Streptococcus pyogenes, C203): 0.25 µg/mL; MIC ([17]; Pasteurella, 22C): 12.5 µg/mL; MIC (Streptococcus Group 9960): 4 µg/mL"
"CCC1OC(=O)CC(O)C(C)C(OC2OC(C)C(O)C(N(C)C)C2O)C(CCOC(C)=O)CC(C)C(=O)C=CC(C)=CC1COC1OC(C)C(O)C(OC)C1OC (stereo not shown) [Compound 29, 20-DH-20-O-Acetyldesmycosin]",0.78 µg/mL,12.5 µg/mL,50 µg/mL,0.25 µg/mL,–,0.25 µg/mL,–,–,1.56 µg/mL,–,3.4 mg/kg,36 mg/kg,0.39 µg/mL,25 µg/mL,8 µg/mL,0.5 µg/mL,5/10,16 µg/mL,12.5 µg/mL,25 µg/mL,"MIC ([3]; Haemophilus influenzae Holt, ampicillin-sensitive strain, read-out: MIC): 16 µg/mL; MIC [6, 28]: 0.5 µg/mL; Number of Deaths/Number tested (Pasteurella multocida [7]; 0.5 g/gal equivalent): 0/10; Number of Deaths/Number tested (Pasteurella multocida [7]; 1.0 g/gal equivalent): 3/10; MIC [9, 21]: 0.12 µg/mL; MIC [12, 22]: 0.25 µg/mL; MIC (Streptococcus bovis 80; Streptococcus bovis 80, broth-dilution microtiter, read-out: MIC): 0.78 µg/mL; MIC [14, 33]: 0.5 µg/mL; MIC [15, 34]: 2 µg/mL"
CCOC(=O)C1CSC(CC2CC(C)C(=O)C=CC(C)=CC(COC3OC(C)C(O)C(OC)C3OC)C(CC)OC(=O)CC(O)C(C)C2OC2OC(C)C(O)C(N(C)C)C2O)N1 (stereo not shown) [Compound 76],–,0.19 µg/mL,50 µg/mL,–,–,0.25 µg/mL,–,4/10,–,3.12 µg/mL,4.8 mg/kg,17 mg/kg,–,25 µg/mL,466 µg/mL,2400 µg/mL,3/10,3250 µg/mL,25 µg/mL,25 µg/mL,"MIC (Staphylococcus aureus): 0.78 µg/mL; MIC [6, 28]: 0.51 µg/mL; Number of Deaths/Number tested (Pasteurella multocida [7]; 0.5 g/gal equivalent): 3/10; Number of Deaths/Number tested (Pasteurella multocida [7]; 1.0 g/gal equivalent, 13/20 infected nonmedicated chicks died in this test): 4/10; MIC (Mycoplasma synoviae): 3.12 µg/mL; MIC ([9]; Staphylococcus epidermidis, EPI2): 0.25 µg/mL; MIC [12, 36]: 0.51 µg/mL; MIC ([14]; Staphylococcus aureus, V41): 0.5 µg/mL; MIC [15, 34]: 0.53 µg/mL; MIC (Mycoplasma gallisepticum): 1.56 µg/mL"
"CCC1OC(=O)CC(O)C(C)C(OC2OC(C)C(O)C(N(C)C)C2O)C(CCCl)CC(C)C(=O)C=CC(C)=CC1COC1OC(C)C(O)C(OC)C1OC (stereo not shown) [Compound 21, 20-DH-DO-20-Chlorodesmycosin]",0.78 µg/mL,12.5 µg/mL,50 µg/mL,0.12 µg/mL,16 µg/mL,–,0.25 µg/mL,–,–,3.12 µg/mL,0.7 mg/kg,6 mg/kg,0.39 µg/mL,6.25 µg/mL,8 µg/mL,0.5 µg/mL,9/10,16 µg/mL,12.5 µg/mL,12.5 µg/mL,"MIC ([5]; Streptococcus pneumoniae Park I, agar dilution, read-out: MIC): 1 µg/mL; Number of Deaths/Number tested (Pasteurella multocida [7]; 1.0 g/gal equivalent): 3/9; Number of Deaths/Number tested (Pasteurella multocida [7]; 2.0 g/gal equivalent): 0/9 and 0/10; Number of Deaths/Number tested (Pasteurella multocida [7]; 2.0 g/gal equivalent, 13/20 infected nonmedicated chicks died in this test): 2/10; Number of Deaths/Number Treated (Pasteurella multocida [10]; 30 mg/kg × 2, 8/10 infected nonmedicated chicks died in this test): 7/10; MIC [12, 36]: 0.12 µg/mL; MIC [14, 33]: 0.12 µg/mL; MIC ([15]; Streptococcus pyogenes, C203): 0.25 µg/mL; MIC (Streptococcus Group 9960; Streptococcus Group 9960, agar dilution, read-out: MIC): 8 µg/mL"
